According to the NIST ThermoML archive (doi:10.1021/je800224k):

Conditions: Liquid

CCCCCCCC[n+]1ccn(C)c1.F[P-](F)(F)(F)(F)F [1-octyl-3-methylimidazolium hexafluorophosphate]
Conditions | mass density [kg/m3]
293.15 K, 101.33 kPa, Vibrating tube method | 1240.8
312.8 K, 10000 kPa, Bellows volumetry | 1230
312.8 K, 20000 kPa, Bellows volumetry | 1236
312.8 K, 30000 kPa, Bellows volumetry | 1241
312.8 K, 40000 kPa, Bellows volumetry | 1247
312.8 K, 50000 kPa, Bellows volumetry | 1252
312.8 K, 60000 kPa, Bellows volumetry | 1257
312.8 K, 70000 kPa, Bellows volumetry | 1261
312.8 K, 80000 kPa, Bellows volumetry | 1266
312.8 K, 90000 kPa, Bellows volumetry | 1270
312.8 K, 100000 kPa, Bellows volumetry | 1275
312.8 K, 110000 kPa, Bellows volumetry | 1279
312.8 K, 120000 kPa, Bellows volumetry | 1283
312.8 K, 130000 kPa, Bellows volumetry | 1287
312.8 K, 140000 kPa, Bellows volumetry | 1291
312.8 K, 150000 kPa, Bellows volumetry | 1294
312.8 K, 160000 kPa, Bellows volumetry | 1298
312.8 K, 170000 kPa, Bellows volumetry | 1302
312.8 K, 180000 kPa, Bellows volumetry | 1305
312.8 K, 190000 kPa, Bellows volumetry | 1309
312.8 K, 200000 kPa, Bellows volumetry | 1312
313.15 K, 101.33 kPa, Vibrating tube method | 1225
332.6 K, 10000 kPa, Bellows volumetry | 1215
332.6 K, 20000 kPa, Bellows volumetry | 1221
332.6 K, 30000 kPa, Bellows volumetry | 1227
332.6 K, 40000 kPa, Bellows volumetry | 1233
332.6 K, 50000 kPa, Bellows volumetry | 1238
332.6 K, 60000 kPa, Bellows volumetry | 1243
332.6 K, 70000 kPa, Bellows volumetry | 1248
332.6 K, 80000 kPa, Bellows volumetry | 1253
332.6 K, 90000 kPa, Bellows volumetry | 1257
332.6 K, 100000 kPa, Bellows volumetry | 1262
332.6 K, 110000 kPa, Bellows volumetry | 1266
332.6 K, 120000 kPa, Bellows volumetry | 1270
332.6 K, 130000 kPa, Bellows volumetry | 1274
332.6 K, 140000 kPa, Bellows volumetry | 1278
332.6 K, 150000 kPa, Bellows volumetry | 1282
332.6 K, 160000 kPa, Bellows volumetry | 1286
332.6 K, 170000 kPa, Bellows volumetry | 1290
332.6 K, 180000 kPa, Bellows volumetry | 1293
332.6 K, 190000 kPa, Bellows volumetry | 1297
332.6 K, 200000 kPa, Bellows volumetry | 1300
333.15 K, 101.33 kPa, Vibrating tube method | 1210
352.6 K, 10000 kPa, Bellows volumetry | 1200
352.6 K, 20000 kPa, Bellows volumetry | 1207
352.6 K, 30000 kPa, Bellows volumetry | 1213
352.6 K, 40000 kPa, Bellows volumetry | 1219
352.6 K, 50000 kPa, Bellows volumetry | 1224
352.6 K, 60000 kPa, Bellows volumetry | 1230
352.6 K, 70000 kPa, Bellows volumetry | 1235
352.6 K, 80000 kPa, Bellows volumetry | 1240
352.6 K, 90000 kPa, Bellows volumetry | 1245
352.6 K, 100000 kPa, Bellows volumetry | 1249
352.6 K, 110000 kPa, Bellows volumetry | 1254
352.6 K, 120000 kPa, Bellows volumetry | 1258
352.6 K, 130000 kPa, Bellows volumetry | 1262
352.6 K, 140000 kPa, Bellows volumetry | 1266
352.6 K, 150000 kPa, Bellows volumetry | 1270
352.6 K, 160000 kPa, Bellows volumetry | 1274
352.6 K, 170000 kPa, Bellows volumetry | 1278
352.6 K, 180000 kPa, Bellows volumetry | 1282
352.6 K, 190000 kPa, Bellows volumetry | 1286
352.6 K, 200000 kPa, Bellows volumetry | 1289
353.15 K, 101.33 kPa, Vibrating tube method | 1195.2
372.8 K, 10000 kPa, Bellows volumetry | 1186
372.8 K, 20000 kPa, Bellows volumetry | 1193
372.8 K, 30000 kPa, Bellows volumetry | 1199
372.8 K, 40000 kPa, Bellows volumetry | 1205
372.8 K, 50000 kPa, Bellows volumetry | 1211
372.8 K, 60000 kPa, Bellows volumetry | 1217
372.8 K, 70000 kPa, Bellows volumetry | 1222
372.8 K, 80000 kPa, Bellows volumetry | 1227
372.8 K, 90000 kPa, Bellows volumetry | 1232
372.8 K, 100000 kPa, Bellows volumetry | 1237
372.8 K, 110000 kPa, Bellows volumetry | 1242
372.8 K, 120000 kPa, Bellows volumetry | 1246
372.8 K, 130000 kPa, Bellows volumetry | 1250
372.8 K, 140000 kPa, Bellows volumetry | 1255
372.8 K, 150000 kPa, Bellows volumetry | 1259
372.8 K, 160000 kPa, Bellows volumetry | 1263
372.8 K, 170000 kPa, Bellows volumetry | 1267
372.8 K, 180000 kPa, Bellows volumetry | 1271
372.8 K, 190000 kPa, Bellows volumetry | 1274
372.8 K, 200000 kPa, Bellows volumetry | 1278
392.8 K, 10000 kPa, Bellows volumetry | 1171
392.8 K, 20000 kPa, Bellows volumetry | 1179
392.8 K, 30000 kPa, Bellows volumetry | 1186
392.8 K, 40000 kPa, Bellows volumetry | 1192
392.8 K, 50000 kPa, Bellows volumetry | 1198
392.8 K, 60000 kPa, Bellows volumetry | 1204
392.8 K, 70000 kPa, Bellows volumetry | 1209
392.8 K, 80000 kPa, Bellows volumetry | 1215
392.8 K, 90000 kPa, Bellows volumetry | 1220
392.8 K, 100000 kPa, Bellows volumetry | 1225
392.8 K, 110000 kPa, Bellows volumetry | 1230
392.8 K, 120000 kPa, Bellows volumetry | 1235
392.8 K, 130000 kPa, Bellows volumetry | 1239
392.8 K, 140000 kPa, Bellows volumetry | 1243
392.8 K, 150000 kPa, Bellows volumetry | 1248
392.8 K, 160000 kPa, Bellows volumetry | 1252
392.8 K, 170000 kPa, Bellows volumetry | 1256
392.8 K, 180000 kPa, Bellows volumetry | 1260
392.8 K, 190000 kPa, Bellows volumetry | 1264
392.8 K, 200000 kPa, Bellows volumetry | 1268
413 K, 10000 kPa, Bellows volumetry | 1157
413 K, 20000 kPa, Bellows volumetry | 1165
413 K, 30000 kPa, Bellows volumetry | 1172
413 K, 40000 kPa, Bellows volumetry | 1179
413 K, 50000 kPa, Bellows volumetry | 1185
413 K, 60000 kPa, Bellows volumetry | 1191
413 K, 70000 kPa, Bellows volumetry | 1197
413 K, 80000 kPa, Bellows volumetry | 1203
413 K, 90000 kPa, Bellows volumetry | 1208
413 K, 100000 kPa, Bellows volumetry | 1213
413 K, 110000 kPa, Bellows volumetry | 1218
413 K, 120000 kPa, Bellows volumetry | 1223
413 K, 130000 kPa, Bellows volumetry | 1228
413 K, 140000 kPa, Bellows volumetry | 1232
413 K, 150000 kPa, Bellows volumetry | 1237
413 K, 160000 kPa, Bellows volumetry | 1241
413 K, 170000 kPa, Bellows volumetry | 1245
413 K, 180000 kPa, Bellows volumetry | 1249
413 K, 190000 kPa, Bellows volumetry | 1253
413 K, 200000 kPa, Bellows volumetry | 1257
432.7 K, 10000 kPa, Bellows volumetry | 1144
432.7 K, 20000 kPa, Bellows volumetry | 1152
432.7 K, 30000 kPa, Bellows volumetry | 1159
432.7 K, 40000 kPa, Bellows volumetry | 1166
432.7 K, 50000 kPa, Bellows volumetry | 1173
432.7 K, 60000 kPa, Bellows volumetry | 1179
432.7 K, 70000 kPa, Bellows volumetry | 1185
432.7 K, 80000 kPa, Bellows volumetry | 1191
432.7 K, 90000 kPa, Bellows volumetry | 1197
432.7 K, 100000 kPa, Bellows volumetry | 1202
432.7 K, 110000 kPa, Bellows volumetry | 1207
432.7 K, 120000 kPa, Bellows volumetry | 1212
432.7 K, 130000 kPa, Bellows volumetry | 1217
432.7 K, 140000 kPa, Bellows volumetry | 1222
432.7 K, 150000 kPa, Bellows volumetry | 1226
432.7 K, 160000 kPa, Bellows volumetry | 1231
432.7 K, 170000 kPa, Bellows volumetry | 1235
432.7 K, 180000 kPa, Bellows volumetry | 1239
432.7 K, 190000 kPa, Bellows volumetry | 1243
432.7 K, 200000 kPa, Bellows volumetry | 1247
452.5 K, 10000 kPa, Bellows volumetry | 1130
452.5 K, 20000 kPa, Bellows volumetry | 1138
452.5 K, 30000 kPa, Bellows volumetry | 1146
452.5 K, 40000 kPa, Bellows volumetry | 1153
452.5 K, 50000 kPa, Bellows volumetry | 1160
452.5 K, 60000 kPa, Bellows volumetry | 1167
452.5 K, 70000 kPa, Bellows volumetry | 1173
452.5 K, 80000 kPa, Bellows volumetry | 1179
452.5 K, 90000 kPa, Bellows volumetry | 1185
452.5 K, 100000 kPa, Bellows volumetry | 1191
452.5 K, 110000 kPa, Bellows volumetry | 1196
452.5 K, 120000 kPa, Bellows volumetry | 1201
452.5 K, 130000 kPa, Bellows volumetry | 1206
452.5 K, 140000 kPa, Bellows volumetry | 1211
452.5 K, 150000 kPa, Bellows volumetry | 1216
452.5 K, 160000 kPa, Bellows volumetry | 1220
452.5 K, 170000 kPa, Bellows volumetry | 1225
452.5 K, 180000 kPa, Bellows volumetry | 1229
452.5 K, 190000 kPa, Bellows volumetry | 1233
452.5 K, 200000 kPa, Bellows volumetry | 1237
472.3 K, 10000 kPa, Bellows volumetry | 1116
472.3 K, 20000 kPa, Bellows volumetry | 1125
472.3 K, 30000 kPa, Bellows volumetry | 1133
472.3 K, 40000 kPa, Bellows volumetry | 1141
472.3 K, 50000 kPa, Bellows volumetry | 1148
472.3 K, 60000 kPa, Bellows volumetry | 1155
472.3 K, 70000 kPa, Bellows volumetry | 1162
472.3 K, 80000 kPa, Bellows volumetry | 1168
472.3 K, 90000 kPa, Bellows volumetry | 1174
472.3 K, 100000 kPa, Bellows volumetry | 1180
472.3 K, 110000 kPa, Bellows volumetry | 1185
472.3 K, 120000 kPa, Bellows volumetry | 1191
472.3 K, 130000 kPa, Bellows volumetry | 1196
472.3 K, 140000 kPa, Bellows volumetry | 1201
472.3 K, 150000 kPa, Bellows volumetry | 1205
472.3 K, 160000 kPa, Bellows volumetry | 1210
472.3 K, 170000 kPa, Bellows volumetry | 1215
472.3 K, 180000 kPa, Bellows volumetry | 1219
472.3 K, 190000 kPa, Bellows volumetry | 1223
472.3 K, 200000 kPa, Bellows volumetry | 1228
